Laboratory results: US12043594B2, “Biphenyl derivative compound and use thereof” (EWHA UNIVERSITY—INDUSTRY COLLABORATION FOUNDATION, priority 2018, dated 2024)

How the values were obtained:
recombinant Nm23-H1 = recombinant Nm23-H1 (Homo sapiens, UniProt P15531); assay: NDPK assay with recombinant Nm23-H1; assay type: biochemical; settings: 5 ng recombinant Nm23-H1, incubated 10 minutes at room temperature, then 5 μM ADP for 1 minute
Method: NDPK assay was performed by incubating 5 ng of recombinant Nm23-H1 with each of test compounds (Examples 1 to 3) in NDPK assay buffer (20 mM HEPES, 3 mM MgCl2) at room temperature for 10 minutes, followed by reaction with 5 μM ADP for 1 minute.

MDA-MB-321 cells [1] = assay: 3D tumor spheroid model; assay type: cell-based; settings: various concentrations, 14 days after treatment, FIG. 4
Method: The cancer growth inhibitory effect of administration of the compounds according to the present disclosure was evaluated using a 3D tumor spheroid model. The 3D tumor spheroid structure has characteristics similar to solid cancer under normal stress conditions because it is not easy to transfer nutrients into cancer cells.
Specifically, 7.5 K MDA-MB-321 cells were 3D-cultured in an ultra-low attachment (ULA) 96-well plate (Perkin Elmer) under a 2.5% Matrigel™ (BD Biosciences) condition. 5 days after 3D spheroid production, the cells were treated with various concentrations of the compound (#24) of Example 1 according to the present disclosure, and 14 days after the treatment, the cancer cell growth inhibitory effect of the compound was evaluated.

MDA-MB-321 cells [2] = assay: 3D tumor spheroid model, co-treatment with paclitaxel; assay type: cell-based; settings: co-treated with paclitaxel, 14 days after treatment, FIG. 5
Method: In order to evaluate the effect of co-treatment with paclitaxel (PTX) which is used as a chemotherapeutic agent against triple negative breast cancer, the effect of co-treatment was evaluated using a 3D tumor spheroid model in a manner similar to Example 7.
Specifically, 7.5 K MDA-MB-321 cells were 3D-cultured in an ultra-low attachment (ULA) 96-well plate (Perkin Elmer) under a 2.5% Matrigel™ (BD Biosciences) condition. 5 days after 3D spheroid production, the cells were co-treated with the compound (B024) of Example 1 according to the present disclosure and paclitaxel in a concentration-dependent manner, and 14 days after the treatment, the cancer cell growth inhibitory effect of co-treatment was evaluated.

recombinant Nm23-H1, sequence (P15531 whole entry): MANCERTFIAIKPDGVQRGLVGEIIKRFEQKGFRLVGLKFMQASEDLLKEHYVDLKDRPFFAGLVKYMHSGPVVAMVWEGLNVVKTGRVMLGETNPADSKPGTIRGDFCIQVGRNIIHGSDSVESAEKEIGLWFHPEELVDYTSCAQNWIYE

| NDPK activity (recombinant Nm23-H1) | SMILES | cancer cell growth in the 3D tumor spheroid model (MDA-MB-321 cells [1]) | cancer cell growth in 3D tumor spheroid model, co-administration with paclitaxel (MDA-MB-321 cells [2]) |
| --- | --- | --- | --- |
| 1.4 | COc1ccc(Cc2cccc(-c3ccc(OC)c(OC)c3)c2)cc1OC [Example 2, 3′-(3,4-dimethoxybenzyl)-3,4-dimethoxy-1,1′-biphenyl] | – | – |
| 1.7 | COc1ccc(C(=O)c2cccc(-c3ccc(OC)c(OC)c3)c2)cc1OC [Example 3, (3′,4′-dimethoxy-[1,1′-biphenyl]-3-yl)(3,4-dimethoxyphenyl)methanone] | – | – |
| 2.8 | COc1ccc(-c2cccc(C(O)c3ccc(OC)c(OC)c3)c2)cc1OC (centres unmarked) [Example 1, (3′,4′-dimethoxy-[1,1′-biphenyl]-3-yl)(3,4-dimethoxyphenyl)methanol] | significantly inhibited cancer cell growth | significantly inhibited cancer cell growth even at low concentrations |
